Reference: patent US20160002299A1, “NON-IMMUNOSUPPRESSIVE CYCLOSPORIN DERIVATIVES AS ANTIVIRAL AGENTS” (UCL BUSINESS PLC, priority 2013, published 2016)

Legend:
[1] = tested on: IFN-β; assay: IFN-β ELISA of supernatants of HIV-1 infected monocyte derived macrophages; format: cell-based, human; conditions: HIV-1 infected MDM, 10 μM Compound 1, supernatants, FIG. 3
Protocol: (§1) Primary monocyte-derived macrophages (MDM) were prepared from fresh blood from healthy volunteers. Peripheral blood mononuclear cells were isolated by Ficoll-Hypaque (Axis-Shield) density centrifugation. The isolated cells were washed with PBS and plated in RPMI (Invitrogen) supplemented with 10% heat-inactivated autologous human serum (HS) and 40 ng/ml macrophage colony stimulating factor (M-CSF) (R&D systems). The medium was then refreshed after 3 days (RPMI 1640 with 10% HS), removing any remaining non-adherent cells. After 6 days, media was replenished with
(§2) RPMI containing 5% type AB HS (Sigma-Aldrich-Aldrich). Replicate experiments were performed with cells derived from different donors.
(§3) Virus particles were produced by transient transfection of HEK293T cells. 3.5 μg of molecular clone DNA; NL4.3 Bal was transfected using Fugene 6 transfection reagent (Promega). Virus supernatants were harvested 48 hr, 72 hr and 96 hr post transfection. […] All virus preparations were quantified by reverse transcriptase (RT) enzyme linked immunosorbant assay (ELISA) (Roche). […]
(§4) Institute of Biological Standards AIDS Reagents Programme) and a secondary antibody linked to beta galactosidase. […] Cells were stained for Gag p24 at specific time points after infection and infected colonies counted. […]

[2] = tested on: HIV-1; assay: Single round HIV-1 infection of monocyte derived macrophages; format: cell-based; conditions: MDM at MOI of 0.1-1, in the presence of Compound 1, FIG. 4
Protocol: as §1, §2, §3, §4

[3] = tested on: HIV-1; assay: HIV-1 replication in monocyte derived macrophages (Gag p24 staining, infected cells counted); format: cell-based; conditions: primary MDM, NL4.3 Bal, MOI 0.2, 10 μM Compound 1 vs DMSO control, FIG. 2
Protocol: as §1, §2, §3, §4

C/C=C/C[C@@H](C)[C@@H](O)[C@H]1C(=O)N[C@@H](CC)C(=O)N(C)[C@H](Cc2ccc(C(=O)O)cc2)C(=O)N(C)[C@@H](CC(C)C)C(=O)N[C@@H](C(C)C)C(=O)N(C)[C@@H](CC(C)C)C(=O)N[C@@H](C)C(=O)N[C@H](C)C(=O)N(C)[C@@H](CC(C)C)C(=O)N(C)[C@@H](CC(C)C)C(=O)N(C)[C@@H](C(C)C)C(=O)N1C [Compound 1] was tested. Which “production of IFN-β” value [1] did it give?
Its value is “elicited the production of IFN-β”.

And the “infection lower after single round infection” value [2]?
The value was 5-7 fold.

And the “HIV-1 replication (number of infected cells)” value [3]?
Its value is “completely suppressed HIV-1 replication”.
